Results from ChEMBL document CHEMBL1131815, “Derivatives of (R)-2-amino-5-methoxytetralin: antagonists and inverse agonists at the dopamine D2A receptor” (Bioorg Med Chem Lett, 1999).

Key:
D(2) dopamine receptor [1] = target: T1, D(2) dopamine receptor (Homo sapiens, UniProt P14416); test: Displacement of [3H]raclopride from human dopamine D2A receptors expressed in LtK cells; type: cell-based
D(2) dopamine receptor [2] = target: T1, D(2) dopamine receptor; test: Displacement of [3H]quinpirole from human dopamine D2A receptors expressed in LtK cells; type: cell-based
D(2) dopamine receptor [3] = target: T1, D(2) dopamine receptor

T1 sequence (P14416 whole entry): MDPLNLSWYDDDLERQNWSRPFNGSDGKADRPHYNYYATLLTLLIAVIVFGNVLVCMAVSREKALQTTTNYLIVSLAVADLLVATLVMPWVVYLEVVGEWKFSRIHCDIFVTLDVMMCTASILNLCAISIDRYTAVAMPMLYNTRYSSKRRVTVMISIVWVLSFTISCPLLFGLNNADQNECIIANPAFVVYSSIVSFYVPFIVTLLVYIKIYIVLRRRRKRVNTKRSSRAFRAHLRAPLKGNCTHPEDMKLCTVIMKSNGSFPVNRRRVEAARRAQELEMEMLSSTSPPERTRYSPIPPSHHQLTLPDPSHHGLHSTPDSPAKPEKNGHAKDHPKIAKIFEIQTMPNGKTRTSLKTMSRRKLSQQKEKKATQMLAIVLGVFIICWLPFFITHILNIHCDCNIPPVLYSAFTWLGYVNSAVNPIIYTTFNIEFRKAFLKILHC

| Ki (D(2) dopamine receptor [1]) [µM] | Ki (D(2) dopamine receptor [2]) [µM] | nH (D(2) dopamine receptor [3]) | Structure (SMILES) |
| --- | --- | --- | --- |
|  |  | 0.65 | NCCc1ccc(O)c(O)c1 |
| > 5 | > 5 |  | COc1cccc2c1CC[C@@H](N(Cc1ccccc1)Cc1ccccc1)C2 |
| 0.125 | 0.118 | 0.83 | CCCN(Cc1ccco1)[C@@H]1CCc2c(cccc2OC)C1 |
| 0.152 | 0.339 | 0.9 | CCCN(Cc1cccs1)[C@@H]1CCc2c(cccc2OC)C1 |
|  |  | 0.86 | CCCN(Cc1ccccc1)[C@@H]1CCc2c(F)cccc2C1 |
| 1.01 | 1.31 | 0.83 | COc1cccc2c1CC[C@@H](NCc1ccccc1)C2 |
| 0.0592 | 0.215 | 0.9 | CCCN(Cc1ccc([N+](=O)[O-])cc1)[C@@H]1CCc2c(cccc2OC)C1 |
| 0.0438 | 0.0697 | 0.9 | CCCN(Cc1ccc(F)cc1)[C@@H]1CCc2c(cccc2OC)C1 |

| Structure (SMILES) | Ki (D(2) dopamine receptor [1]) [µM] | Ki (D(2) dopamine receptor [2]) [µM] | nH (D(2) dopamine receptor [3]) |
| --- | --- | --- | --- |
| CCCN(Cc1ccc(OC)cc1)[C@@H]1CCc2c(cccc2OC)C1 | 0.022 | 0.0641 | 0.94 |
| CCCN(CCC)[C@@H]1CCc2c(F)cccc2C1 |  |  | 0.89 |
| CCCN(CCC)[C@@H]1CCc2c(cccc2OC)C1 | 0.046 | 0.00635 | 1.06 |
| CCCN[C@@H]1CCc2c(cccc2OC)C1 | 0.114 | 0.0823 | 1.06 |
| CCCN(Cc1ccccc1)[C@@H]1CCc2c(cccc2OC)C1 | 0.0656 | 0.075 | 1.05 |
